Measurements published in patent US6262106A, “Adamantanecarboximidamide derivatives and their use as NMDA antagonists” (priority 1998, dated 2001).
Structures can show the parent of a compound that is named as a salt.

Assays:
[1] = known NMDA antagonists, administration; cited from earlier work
[2] = test system: PCP site of the NMDA receptor (cortical NMDA receptors); test: NMDA receptor binding, [3H]-MK-801 displacement at PCP site, rat cortical membranes; details: for Ratio: (IC50 Cortex / IC50 Cerebellum); for IC50: rat cortex membranes, [3H]-MK-801 5 nM, 10 μM glutamate, 10 μM glycine, 120 min, room temperature
From the text: (§1) The NMDA receptor contains several distinct binding domains that can regulate opening of the cationic channel. The phencyclidine (PCP) site of the NMDA receptor can be radiolabelled with [^3 H]-(+)-5-methyl-10,11-dihydro-5H-dibenzo[a,d]cyclohepten-5,10-imine hydrogen maleate, [^3 H-MK-801]. The following describes the procedure for determining the affinity of compounds for the PCP site in rat cortical or cerebellar membranes.
(§2) Frozen rat cortex or cerebellum, homogenized in 10 volumes of ice-cold 0.32-M. sucrose is centrifuged at 1,000 g for 12 min and the supernatant stored on ice whilst the pellet is resuspended, rehomogenized and recentrifuged twice more. The three final supernatants are pooled and centrifuged at 30,000 g for 40 min at 4° C. to yield P2 pellets. These are resuspended in ice-cold distilled water, and centrifuged at 30,000 g for 50 min at 4° C. Following three further washes in distilled water, the P2 pellets are stored at -20° C. for at least 18 h. On the day of the assay, membrane pellets are thawed at room temperature, resuspended in ice-cold distilled water and centrifuged at 30,000 g for 20 min. The pellets are resuspended in 50-mM tris-HCl (pH:7.4) and recentrifuged twice more before being resuspended in tris-HCl for immediate use in the assay. Binding assays are performed at equilibrium in a total volume of 200 μL, containing [^3 H]-MK-801 (5-nM final conc.), 10-μM glutamate, 10-μM glycine, 160 μL of membrane preparation and additional drugs where appropriate. Non-specific binding is determined using MK-801 (10-μM). The assay is incubated for 120 min at room temperature. The incubation is terminated by rapid filtration through Whatman GF/B filters (pre-soaked in 0.1% PEI solution). The assay tubes and filters are washed five times with 1 mL of ice-cold assay buffer. The filters are placed in poly-Q mini vials with approximately 5 mL of scintillation fluid. The vials are then shaken and left for at least 8 h before being counted on a liquid scintillation counter. To determine the free ligand concentration 3 aliquots (20 μL) of the [^3 H]-MK-801 working solution are also counted. Concentration response data for drugs is analysed using a 4 parameter equation fitted by non-linear regression. This yields the half maximally effective drug concentration (IC50) and Hill coefficient.

[3] = target: PCP site of the NMDA receptor (cerebellar NMDA receptors); test: NMDA receptor binding, [3H]-MK-801 displacement at PCP site, rat cerebellar membranes; details: rat cerebellum membranes; [3H]-MK-801 5 nM; 10 μM glutamate, 10 μM glycine; 120 min, room temperature
From the text: as §1, §2

SMILES | side effects [1] | Ratio [2] | IC50 [2] [µM] | IC50 [3] [µM]
CCc1cccc(N(C)C(N)=Nc2cccc3ccccc23)c1 [Cerestat] | perceptual and cognitive disturbances of a kind that resemble naturally-occurring psychotic states | – | – | –
N=C(N)C1(c2ccc(F)cc2)C2CC3CC(C2)CC1C3 (stereo not shown) [Example 6, 2-(4-Fluorophenyl)-2-adamantanecarboximidamide hydrochloride] | – | 1.8 | 44 | 25
Cc1ccc(C2(C(=N)N)C3CC4CC(C3)CC2C4)cc1 (stereo not shown) [Example 4, 2-(4-Methylphenyl)-2-adamantanecarboximidamide hydrochloride] | – | 1.9 | 105 | 56
C[C@]12N[C@H](Cc3ccccc31)c1ccccc12 [Dizocilpine] | perceptual and cognitive disturbances of a kind that resemble naturally-occurring psychotic states | – | – | –
CNC1(c2ccccc2Cl)CCCCC1=O (stereo not shown) [Ketamine] | perceptual and cognitive disturbances of a kind that resemble naturally-occurring psychotic states | – | – | –
Cc1ccccc1C1(C(=N)N)C2CC3CC(C2)CC1C3.Cl (stereo not shown) [Example 5, 2-(2-Methylphenyl)-2-adamantanecarboximidamide hydrochloride] | – | 1.7 | 53 | 31
N=C(N)C1(c2ccc(Cl)cc2)C2CC3CC(C2)CC1C3 (stereo not shown) [Example 7, 2-(4-Chlorophenyl)-2-adamantanecarboximidamide hydrochloride] | – | 1.7 | 59 | 34
COc1ccc(C2(C(=N)N)C3CC4CC(C3)CC2C4)cc1 (stereo not shown) [Example 8, 2-(4-Methoxyphenyl)-2-adamantanecarboximidamide hydrochloride] | – | 2.0 | 45 | 22
c1ccc(C2(N3CCCCC3)CCCCC2)cc1 [PCP, phencyclidine] | perceptual and cognitive disturbances of a kind that resemble naturally-occurring psychotic states | – | – | –
